In the NIST ThermoML archive (doi:10.1021/je050010l):

Assays:
[1] = xn = mol fraction of the nth substance listed; conditions: 308.15 K, 100.8 kPa, Liquid; for viscosity: Capillary tube (Ostwald / Ubbelohde) method
[2] = refractive index (Na D-line) (dimensionless); xn = mol fraction of the nth substance listed; conditions: 100.8 kPa, Liquid, Standard Abbe refractometry

CC(C)=O [acetone] + CCO
[1]
Conditions	mass density [kg/m3]	viscosity [mPa·s]
x1 = 0.05	776.66	–
x1 = 0.1	776.66	–
x1 = 0.15	776.61	–
x1 = 0.2	776.53	–
x1 = 0.25	776.41	–
x1 = 0.3	776.28	–
x1 = 0.35	776.12	–
x1 = 0.4	775.96	–
x1 = 0.45	775.79	–
x1 = 0.4999	775.63	–
x1 = 0.55	775.47	0.364
x1 = 0.6	775.3	0.349
x1 = 0.65	775.13	0.335
x1 = 0.7	774.96	0.322
x1 = 0.75	774.77	0.312
x1 = 0.8	774.59	0.303
x1 = 0.8501	774.4	0.295
x1 = 0.9	774.23	0.288
x1 = 0.95	774.08	0.281
x1 = 1	773.91	0.274

refractive index, [2]
Conditions	288.15 K	298.15 K	308.15 K
x1 = 0.05	1.36354	1.35919	1.35486
x1 = 0.1	1.3636	1.35915	1.3547
x1 = 0.15	1.36366	1.35909	1.35454
x1 = 0.2	1.36361	1.35899	1.35435
x1 = 0.25	1.36357	1.35887	1.35414
x1 = 0.3	1.3635	1.35873	1.35391
x1 = 0.35	1.36343	1.35857	1.35369
x1 = 0.4	1.36334	1.35842	1.35346
x1 = 0.45	1.36324	1.35826	1.35324
x1 = 0.4999	1.36313	1.35809	1.353
x1 = 0.55	1.36301	1.3579	1.35276
x1 = 0.6	1.36289	1.35771	1.35251
x1 = 0.65	1.36275	1.35753	1.35228
x1 = 0.7	1.36261	1.35734	1.35203
x1 = 0.75	1.36246	1.35713	1.35177
x1 = 0.8	1.3623	1.35692	1.35152
x1 = 0.8501	1.36214	1.35673	1.35127
x1 = 0.9	1.36198	1.35651	1.35102
x1 = 0.95	1.36177	1.35629	1.3508
x1 = 1	1.36152	1.35605	1.35057
